Experimental data taken from PMC12491701, “Discovery of an APP-selective BACE1 inhibitor for Alzheimer's disease” (Neurotherapeutics, 2025).
Where “and” joins values, the source holds several entries; their conditions need not be identical. Equal entries are not always repeated.

Columns and labels:
eAPP = eAPP (Homo sapiens, UniProt P05067); test: APP binding by surface plasmon resonance (SPR)
Procedure: The interaction of FAH3, 17 and 65 were evaluated using the SPR protocol described previously in Descamps et al., [26].
For these pilot experiments eAPP as described in Descamps et al (26) is crosslinked to a the CM5 Biacore chip. FAH3 at various concentration was used in the flow through the chip, and the plasmon resonance signal was determined using a Biacore T100. The raw data uncorrected for contribution of running buffer is fit to equilibrium binding data and corrected for the contribution of the running buffer to
For FAH17 and FAH65-APP binding was determined using SPR to determine competition with BSA that non-specifically binds to the eAPP-Biacore chip.

[1] = system: CHO-7W cells expressing wildtype human APP; test: sAPPβ and Aβ1-42 production in CHO-7W cells (AlphaLISA); assay type: cell-based, Chinese hamster; conditions: 1 μM, in words
Procedure: Culture Media was collected and frozen. Media was assayed using an AlphaLISA for Aβ1-42 (Perkin Elmer catalog # AL276C), sAPPα (R&D Systems catalog # AF1168 conjugated with Perkin Elmer acceptor beads catalog # 6772001 + 2B3 antibody from IBL catalog # 11088 biotinylated), and sAPPβ (Perkin Elmer AL276-acceptor + IBL catalog # 18957 biotinylated). For the assay, 2 μL of diluted or undiluted sample was added to a 384 well plate, followed by 2 μL of the respective antibody mixture. This was incubated for 1 h. Afterwards, 2 μL of donor beads was added to each well, followed by a 30-min incubation in the dark, after which the signal was read.

cathepsin D (CatD) = molecular target: T1, cathepsin D (CatD) (Homo sapiens, UniProt P07339); test: Cathepsin D activity assay; assay type: biochemical; conditions: in words
T1 construct: purchased R&D Systems 1014-AS
T1 sequence (P07339 65-412): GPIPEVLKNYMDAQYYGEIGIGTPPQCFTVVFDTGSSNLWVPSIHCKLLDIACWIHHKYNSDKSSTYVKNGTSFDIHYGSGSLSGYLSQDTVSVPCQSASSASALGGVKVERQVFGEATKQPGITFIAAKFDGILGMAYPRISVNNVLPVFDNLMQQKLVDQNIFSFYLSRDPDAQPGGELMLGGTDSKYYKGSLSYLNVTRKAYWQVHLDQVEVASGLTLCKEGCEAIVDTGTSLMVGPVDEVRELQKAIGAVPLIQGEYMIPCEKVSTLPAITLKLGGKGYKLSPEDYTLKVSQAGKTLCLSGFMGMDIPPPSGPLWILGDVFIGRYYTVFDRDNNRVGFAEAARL
Procedure: The effects of candidate ASBIs on cathepsin D (CatD) activity was assessed using the R&D Systems CatD activity assay kit (Catalog #: 1014-AS and ES001) according to the manufacturer's instructions. For the assay, 4 μL of assay buffer was added to each well, followed by 2 μL of CatD diluted in assay buffer to 5 ng/uL. Then, 2 μL of inhibitor, at concentrations along an 11 pt. two-fold dilution series starting at 50 μM, were added to appropriated wells and incubated for 30 min at room temperature. For all dilutions of inhibitor, drug stock solutions of 10 mM in DMSO were diluted to 50 μM in water; subsequent dilutions were in 2.5 % DMSO. Afterwards, 2 μL of fluorogenic CatD substrate, diluted to 50 μM in assay buffer, were added to each well, after which the signal generated was read every 30 min at 25 °C for 1hr.

BACE1 = BACE1 (Homo sapiens, UniProt P56817); test: P5-P5′ BACE1 inhibition assay; assay type: biochemical; conditions: cell-free; read-out: BACE1 IC50 (P5-P5′ assay; BACE1-APP)
Chain of BACE1 (P56817 46-501): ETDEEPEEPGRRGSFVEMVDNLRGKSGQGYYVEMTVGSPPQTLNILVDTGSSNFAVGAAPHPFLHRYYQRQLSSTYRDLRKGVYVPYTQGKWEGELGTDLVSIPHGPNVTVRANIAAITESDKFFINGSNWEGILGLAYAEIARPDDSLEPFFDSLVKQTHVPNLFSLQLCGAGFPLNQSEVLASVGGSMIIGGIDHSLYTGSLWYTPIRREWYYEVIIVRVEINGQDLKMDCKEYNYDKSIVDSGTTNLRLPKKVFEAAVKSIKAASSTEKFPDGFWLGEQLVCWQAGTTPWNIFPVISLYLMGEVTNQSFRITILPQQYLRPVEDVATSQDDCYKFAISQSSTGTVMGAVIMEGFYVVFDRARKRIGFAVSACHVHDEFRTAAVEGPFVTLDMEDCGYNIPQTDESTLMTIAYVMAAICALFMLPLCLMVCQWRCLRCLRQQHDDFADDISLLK
Procedure: For the P5-P5′ BACE1 inhibition assay, 4 ​μL of assay buffer was added to each well, followed by 2 ​μL of BACE1 diluted in assay buffer to 7.5 ​ng/μL. Then, 2 ​μL of inhibitor, at concentrations along an 11 ​pt. two-fold dilution series starting at 10 ​μM, or 0.5 ​μM, were added to appropriate wells and incubated for 30 ​min at room temperature. For all dilutions of inhibitor, drug stock solutions of 10 ​mM in DMSO were diluted to 50 ​μM in water; subsequent dilutions were in 0.5 ​% DMSO. Afterwards, 2 ​μL of fluorogenic P5-P5′ BACE1 substrate, diluted to 50 ​μM in assay buffer, were added to each well and the signal generated was read every 30 ​min at 25 ​°C for 2 ​h.

BACE1 cleavage of NRG1 = molecular target: T2, BACE1 cleavage of NRG1 (Homo sapiens, UniProt P56817); test: SEAP-NRG assay; assay type: cell-based; conditions: SEAP-NRG1, HEK293
T2 construct: with or without full-length wild-type BACE1; expressed in transfected cells; host or cells: HEK293
T2 sequence (P56817 46-501): as above
Procedure: A cDNA construct encoding a human placental secreted alkaline phosphatase (SEAP)-NRG1 (pAPtag5-NRG1-β1) fusion protein was transfected in human embryonic kidney (HEK293) cells in a 6-well format with or without full-length wild-type BACE1 using Lipofectamine 2000 (Invitrogen) as described previously [27]. After transfection, the medium was replaced with DMEM containing the test compound at 10, 5, 1, 0.1, and 0.01 ​μM as well as 10 ​% heat-inactivated fetal bovine serum (FBS), then incubated for 24 ​h. SEAP activity was measured in the conditioned medium.

BACE1 cleavage of PSGL1 = molecular target: T3, BACE1 cleavage of PSGL1 (Homo sapiens, UniProt P56817); test: PSGL1 assay (SEAP-PSGL1); assay type: cell-based; conditions: SEAP-PSGL1, HEK293
T3 construct: with or without full-length wild-type BACE1; expressed in transfected cells; host or cells: HEK293
T3 sequence (P56817 46-501): as above
Procedure: A cDNA construct encoding a human placental secreted alkaline phosphatase (SEAP)-PSGL1 (pAPtag5-PSGL1-β1) fusion protein was transfected in human embryonic kidney (HEK293) cells in a 6-well format with or without full-length wild-type BACE1 using Lipofectamine 2000 (Invitrogen). After 6–8 ​h transfection, the medium was replaced with DMEM containing the test compound at 10, 5, 1, 0.1 and 0.01 ​μM and 10 ​% heat-inactivated fetal bovine serum (FBS), and incubated for 24 ​h. SEAP activity was measured in the conditioned medium.

[2] = molecular target: BACE1 cleavage of MBP-APPC125 substrate (Homo sapiens, UniProt P56817); test: MBP-APPC125 BACE1 cleavage assay; assay type: biochemical; conditions: in words
Chain of BACE1 cleavage of MBP-APPC125 substrate (P56817 46-501): as above
Procedure: (-)/peak 2 enantiomers. […] Specifically, 2 μL of the Acc-Mix was loaded into each well and incubated for 1-hour at RT, then 2 μL of Donor-Mix was added and incubated for 30 min at room RT protected from light. The signal was quantified using an Envision Plate reader (Fig S6). Testing of FA[…](-) in HEK-APP-GFP cells HEK293T cells stably transfected with human APP (P05067-1, […]) tagged with Green Fluorescent Protein (GFP) on the N-terminal (HEK-APP; AcroBiosystems cat# CHEK-ATP081) were cultured according to manufacturer recommendations. […] Cells were then washed with PBS and imaged at 37 °C and 5% CO2 using a BioTek Lionheart FX microscope using brightfield and green fluorescence filters with a 20X objective. Images were then processed with Gen5 software to obtain the total intensity of the GFP channel (469/525) and the mean GFP channel intensity.(Fig S7, S8) Supplementary Figures Figure S1. BACE inhibition dose-response and pharmacokinetics for FAH1 and FAH3. (a) IC50 curves for FAH1, 3, 17 and 65 in the P5-P5' assay described in main manuscript. […] μM, respectively. […] 150 FAH-65 BA C E-IV 100 50 0 50 10 0. 1 [ ] µM Figure S2. FAH65 in the BACE2 assay. […] 6 (1 picture or pasted object on this page, not shown here)

Chain of eAPP (P05067 18-701): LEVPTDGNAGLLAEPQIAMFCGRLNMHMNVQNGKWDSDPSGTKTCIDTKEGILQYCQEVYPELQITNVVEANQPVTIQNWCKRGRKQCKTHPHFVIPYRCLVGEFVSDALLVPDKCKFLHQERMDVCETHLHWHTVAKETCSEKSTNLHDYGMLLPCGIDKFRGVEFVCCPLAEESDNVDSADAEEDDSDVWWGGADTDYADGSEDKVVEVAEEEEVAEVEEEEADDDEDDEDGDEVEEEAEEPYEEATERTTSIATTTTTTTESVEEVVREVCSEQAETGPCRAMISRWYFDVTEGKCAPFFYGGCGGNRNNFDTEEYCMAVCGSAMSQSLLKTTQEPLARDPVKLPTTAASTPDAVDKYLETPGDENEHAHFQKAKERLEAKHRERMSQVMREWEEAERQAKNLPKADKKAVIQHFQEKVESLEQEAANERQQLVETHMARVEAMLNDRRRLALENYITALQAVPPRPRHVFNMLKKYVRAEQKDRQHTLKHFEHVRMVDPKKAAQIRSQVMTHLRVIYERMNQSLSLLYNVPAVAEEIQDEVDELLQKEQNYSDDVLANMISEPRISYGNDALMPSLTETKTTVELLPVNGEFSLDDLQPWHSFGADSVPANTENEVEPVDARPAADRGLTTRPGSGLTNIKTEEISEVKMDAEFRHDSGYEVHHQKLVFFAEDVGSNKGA

Kd (eAPP) | inhibition of cathepsin D activity (cathepsin D (CatD)) | IC50 (BACE1) | EC50 (BACE1 cleavage of NRG1) | EC50 (BACE1 cleavage of PSGL1) | inhibition of BACE1 cleavage of MBP-APPC125 [2] | Structure (SMILES) | sAPPβ production ([1]; 24-h treatment) | Aβ1-42 production [1]
~3.3 µM | Neither analog significantly inhibited | ~0.3 µM and 0.3 µM | > 10 µM | > 10 µM |  | Cc1cc(C2(c3cccc(F)c3)N=C(N)N(C)C2=O)ccc1OC(F)F (stereo not drawn) [FAH17] | decrease | decrease
 |  | > 200 µM |  |  | weak inhibitor | O=C1NC(=O)C(c2ccccc2)(c2ccccc2)N1 [phenytoin, reference compound] |  | 
